# PubChem BioAssay (NCI)
# “And” between values parts separate entries of the source, which are not always exact repeats. Identical values can stand only once.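 Five concentrations, 48 hours, 96-well plates. GI50 = concentration required for 50% inhibition of growth. TGI: total growth inhibition.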
# Key:
# Assay in all cases: NCI tumour cell line growth inhibition, 48 h
# 786-0 renal = test system: 786-0 renal
# A498 renal = test system: A498 renal
# A549 NSCLC = test system: A549 NSCLC
# ACHN renal = test system: ACHN renal
# BT-549 breast = test system: BT-549 breast
# CAKI-1 renal = test system: CAKI-1 renal
# CCRF-CEM leukemia = test system: CCRF-CEM leukemia
# COLO 205 colon = test system: COLO 205 colon
# DLD-1 colon = test system: DLD-1 colon
# DMS 114 small cell lung = test system: DMS 114 small cell lung
# DMS 273 small cell lung = test system: DMS 273 small cell lung
# DU-145 prostate = test system: DU-145 prostate
# EKVX NSCLC = test system: EKVX NSCLC
# HCC-2998 colon = test system: HCC-2998 colon
# HCT-116 colon = test system: HCT-116 colon
# HCT-15 colon = test system: HCT-15 colon
# HL-60(TB) leukemia = test system: HL-60(TB) leukemia
# HOP-62 NSCLC = test system: HOP-62 NSCLC
# HOP-92 NSCLC = test system: HOP-92 NSCLC
# HS 578T breast = test system: HS 578T breast
# HT29 colon = test system: HT29 colon
# IGROV1 ovarian = test system: IGROV1 ovarian
# K-562 leukemia = test system: K-562 leukemia
# KM12 colon = test system: KM12 colon
# KM20L2 colon = test system: KM20L2 colon
# LOX IMVI melanoma = test system: LOX IMVI melanoma
# M14 melanoma = test system: M14 melanoma
# M19-MEL melanoma = test system: M19-MEL melanoma
# MALME-3M melanoma = test system: MALME-3M melanoma
# MCF7 breast = test system: MCF7 breast
# MDA-MB-231 breast = test system: MDA-MB-231 breast
# MDA-MB-435 = test system: MDA-MB-435
# MDA-N = test system: MDA-N
# MOLT-4 leukemia = test system: MOLT-4 leukemia
# NCI-H226 lung = test system: NCI-H226 lung
# NCI-H23 lung = test system: NCI-H23 lung
# NCI-H460 lung = test system: NCI-H460 lung
# NCI-H522 lung = test system: NCI-H522 lung
# NCI/ADR-RES ovarian = test system: NCI/ADR-RES ovarian
# OVCAR-3 ovarian = test system: OVCAR-3 ovarian
# OVCAR-4 ovarian = test system: OVCAR-4 ovarian
# OVCAR-5 ovarian = test system: OVCAR-5 ovarian
# OVCAR-8 ovarian = test system: OVCAR-8 ovarian
# PC-3 prostate = test system: PC-3 prostate
# RPMI-8226 leukemia = test system: RPMI-8226 leukemia
# RXF 393 renal = test system: RXF 393 renal
# RXF-631 renal = test system: RXF-631 renal
# SF-268 CNS = test system: SF-268 CNS
# SF-295 CNS = test system: SF-295 CNS
# SF-539 CNS = test system: SF-539 CNS
# SK-MEL-2 melanoma = test system: SK-MEL-2 melanoma
# SK-MEL-28 melanoma = test system: SK-MEL-28 melanoma
# SK-MEL-5 melanoma = test system: SK-MEL-5 melanoma
# SK-OV-3 ovarian = test system: SK-OV-3 ovarian
# SN12C renal = test system: SN12C renal
# SNB-19 CNS = test system: SNB-19 CNS
# SNB-75 CNS = test system: SNB-75 CNS
# SNB-78 CNS = test system: SNB-78 CNS
# SR leukemia = test system: SR leukemia
# SW-620 colon = test system: SW-620 colon
# T-47D breast = test system: T-47D breast
# TK-10 renal = test system: TK-10 renal
# U251 CNS = test system: U251 CNS
# UACC-257 melanoma = test system: UACC-257 melanoma
# UACC-62 melanoma = test system: UACC-62 melanoma
# UO-31 renal = test system: UO-31 renal
# XF 498 CNS = test system: XF 498 CNS
# HOP-18 NSCLC = test system: HOP-18 NSCLC
# P388/ADR leukemia = test system: P388/ADR leukemia
compound,measurement,setting,value
N=C(N)SCc1cccc2c(=O)cc(-c3ccccc3)oc12,TGI,786-0 renal,23.3 µM
same,TGI,A498 renal,35.8 µM
same,TGI,A549 NSCLC,29 µM
same,TGI,ACHN renal,15.5 µM
same,TGI,BT-549 breast,28.2 µM
same,TGI,CAKI-1 renal,11.3 µM
same,TGI,CCRF-CEM leukemia,18.6 µM
same,TGI,COLO 205 colon,27.3 µM
same,TGI,DLD-1 colon,48.5 µM
same,TGI,DMS 114 small cell lung,31.1 µM
same,TGI,DMS 273 small cell lung,27.7 µM
same,TGI,DU-145 prostate,16.2 µM
same,TGI,EKVX NSCLC,37.9 µM
same,TGI,HCC-2998 colon,27.1 µM
same,TGI,HCT-116 colon,19.7 µM
same,TGI,HCT-15 colon,> 65.7 µM
same,TGI,HL-60(TB) leukemia,13.1 µM
same,TGI,HOP-62 NSCLC,44.8 µM
same,TGI,HOP-92 NSCLC,16.9 µM
same,TGI,HS 578T breast,45.4 µM
same,TGI,HT29 colon,24.8 µM
same,TGI,IGROV1 ovarian,30.2 µM
same,TGI,K-562 leukemia,> 42.2 µM
same,TGI,KM12 colon,27.3 µM
same,TGI,KM20L2 colon,45.6 µM
same,TGI,LOX IMVI melanoma,28.3 µM
same,TGI,M14 melanoma,27.5 µM
same,TGI,M19-MEL melanoma,49.9 µM
same,TGI,MALME-3M melanoma,27.2 µM
same,TGI,MCF7 breast,16.3 µM
same,TGI,MDA-MB-231 breast,21.4 µM
same,TGI,MDA-MB-435,21.5 µM
same,TGI,MDA-N,21.3 µM
same,TGI,MOLT-4 leukemia,8.79 µM
same,TGI,NCI-H226 lung,58 µM
same,TGI,NCI-H23 lung,31.3 µM
same,TGI,NCI-H460 lung,22.9 µM
same,TGI,NCI-H522 lung,13.6 µM
same,TGI,NCI/ADR-RES ovarian,> 100 µM
same,TGI,OVCAR-3 ovarian,23.1 µM
same,TGI,OVCAR-4 ovarian,31.2 µM
same,TGI,OVCAR-5 ovarian,41.8 µM
same,TGI,OVCAR-8 ovarian,29.8 µM
same,TGI,PC-3 prostate,17.3 µM
same,TGI,RPMI-8226 leukemia,18.4 µM
same,TGI,RXF 393 renal,19.5 µM
same,TGI,RXF-631 renal,28.5 µM
same,TGI,SF-268 CNS,45.8 µM
same,TGI,SF-295 CNS,26.5 µM
same,TGI,SF-539 CNS,20.9 µM
same,TGI,SK-MEL-2 melanoma,25.2 µM
same,TGI,SK-MEL-28 melanoma,6.37 µM
same,TGI,SK-MEL-5 melanoma,29.8 µM
same,TGI,SK-OV-3 ovarian,30.5 µM
same,TGI,SN12C renal,25.9 µM
same,TGI,SNB-19 CNS,> 61.1 µM
same,TGI,SNB-75 CNS,19.4 µM
same,TGI,SNB-78 CNS,31.7 µM
same,TGI,SR leukemia,> 100 µM
same,TGI,SW-620 colon,> 39.3 µM
same,TGI,T-47D breast,15.9 µM
same,TGI,TK-10 renal,26.8 µM
same,TGI,U251 CNS,27.3 µM
same,TGI,UACC-257 melanoma,26 µM
same,TGI,UACC-62 melanoma,32.4 µM
same,TGI,UO-31 renal,11.3 µM
same,TGI,XF 498 CNS,28.4 µM
COc1cc2cc(c1Cl)N(C)C(=O)C[C@H](OC(=O)[C@H](C)N(C)C(C)=O)[C@]1(C)O[C@H]1[C@H](C)[C@@H]1C[C@@](O)(NC(=O)O1)[C@H](OC)C=C/C=C(\C)C2,GI50,786-0 renal,0.0019 µM
same,GI50,ACHN renal,0.00211 µM
same,TGI,ACHN renal,0.0595 µM
same,GI50,BT-549 breast,0.000623 µM
same,GI50,DU-145 prostate,0.0553 µM
same,TGI,HOP-18 NSCLC,> 95.6 µM and 239 µM
same,GI50,HS 578T breast,0.000745 µM
same,GI50,M14 melanoma,0.00128 µM
same,GI50,MDA-MB-435,0.00168 µM
same,TGI,MDA-MB-435,0.00755 µM and < 0.0146 µM
same,TGI,MDA-N,0.0709 µM and 0.0274 µM
same,TGI,P388/ADR leukemia,1.87 µM and 9.07 µM
same,GI50,PC-3 prostate,0.0371 µM
same,GI50,SR leukemia,0.000336 µM
same,TGI,SR leukemia,0.0106 µM
same,GI50,T-47D breast,0.0142 µM
same,TGI,T-47D breast,0.0714 µM
same,GI50,TK-10 renal,0.0144 µM
same,TGI,TK-10 renal,0.0804 µM
